How the values were obtained:
[1] = tested on: Sprague-Dawley rats; test: Effect of multiple administrations on serum phosphorus concentration in rats (serum phosphorus, 24-h urinary phosphorus and sodium, fecal form); format: in vivo, rat; details: for 24-h nP, course: after 15 days; for serum phosphorus concentration: intragastric twice a day
Description: The compound represented by formula (I) was evaluated by measuring the serum phosphorus concentration, concentrations of urinary phosphorus and urinary sodium, and fecal form in rats. Six-week-old Sprague-Dawley rats were purchased from Beijing Vital River Laboratory Animal Technology Co., Ltd. Two rats in each cage were placed in the SPF-grade animal room, and the rats were acclimatized for about one week. Throughout the study, the animals were given ad libitum access to feed and water, and the light cycle was 12 h of light and 12 h of darkness. Animal groups: vehicle group, n=5; Tenapanor 0.05 mg/kg, n=5; compound represented by formula (I) 0.01 mg/kg, n=5; compound represented by formula (I) 0.05 mg/kg, n=5; compound represented by formula (I) 0.5 mg/kg, n=5; and compound represented by formula (I) 1.0 mg/kg, n=5.
After the start of the experiment, the feeding rhythm of the rats was adjusted to diurnal feeding in a manner of overnight fasting for 16 h and restoring feed for 8 h during the day. After the start of administration, the test compound or vehicle (0.5% Tween 80+99.5% distilled water) was administered intragastrically twice a day during the feeding period, with an interval of 4 h, for 14 consecutive days. The body weight of animals and food consumption were measured daily. The serum phosphorus concentration (including baseline values before the administration), 24-hour urinary phosphorus excretion amount, and 24-hour urinary sodium excretion amount were measured 1-2 times a week, and fecal form in the collection funnel was scored (fecal form was assessed by two independent observations). Fecal form scoring criteria: 1. normal pellets; 2. slightly soft feces (pellets adhered to the side wall of the collector due to moisture); 3. soft feces (loss of normal shape of the pellets); 4. loose and amorphous (complete loss of shape, accompanied by a blot pattern); and 5. diarrhea (watery feces). Fecal form score (FFS) in rats was determined by averaging two independent observation scores for all rats in the same group (n=5); and the mean value for the vehicle group was 1.
After being left to stand at room temperature for 2 h, the blood was centrifuged at 4° C. at 4500 g for 10 min; the urine was centrifuged at 4° C. at 3220 g for 5 min; and the serum phosphorus concentration and urinary phosphorus concentration (phosphomolybdic acid ultraviolet endpoint colorimetric method), as well as urinary sodium concentration (indirect ion electrode method) were measured.
(§1) The results were expressed as mean±standard error (Means±SEM), n=5 animals/group. The urinary phosphorus excretion amount (or urinary sodium excretion amount) in the rats was normalized and corrected against the respective dietary phosphorus (or sodium) intake. The formula was as follows: normalized correction value of urinary phosphorus excretion amount (expressed as nP)=urinary phosphorus excretion amount+dietary phosphorus intake; normalized correction value of urinary sodium excretion amount (expressed as nNa)=urinary sodium excretion amount+dietary sodium intake; two-way analysis of variance was adopted; and fecal form score was verified by the non-parametric test. *, p<0.05; ** p<0.01; *** p<0.001; ****, p<0.0001.

[2] = tested on: Sprague-Dawley rats; test: Inhibition of phosphate and sodium absorption in intestinal tract of rats after single administration (urinary phosphorus, urinary sodium, fecal form); format: in vivo, rat; details: normal rats
Description: The compound represented by formula (I) was evaluated by measuring the concentrations of urinary phosphorus and urinary sodium, as well as fecal form.
Six-week-old Sprague-Dawley rats were purchased from Beijing Vital River Laboratory Animal Technology Co., Ltd. Two rats in each cage were placed in the SPF-grade animal room, and the rats were acclimatized for about one week. Throughout the study, the animals were given ad libitum access to feed and water, and the light cycle was 12 h of light and 12 h of darkness. Animal groups: vehicle group, n=5; tenapanor 0.3 mg/kg group, n=5; compound represented by formula (I) 0.03 mg/kg group, n=5; compound represented by formula (I) 0.1 mg/kg group, n=5; compound represented by formula (I) 0.3 mg/kg group, n=5; and compound represented by formula (I) 1.0 mg/kg group, n=5.
On the day of the experiment, the test compound or vehicle (0.5% Tween 80+99.5% distilled water) was administered intragastrically to the animals after 8 h of fasting. Then, the animals were transferred into metabolism cages for single-cage feeding, and the feed was restored. Sixteen hours after administration, urine samples were collected, food consumption was recorded, and fecal form in the collection funnel was evaluated by two independent observations. Fecal form scoring criteria: 1. normal pellets; 2. slightly soft feces (pellets adhered to the side wall of the collector due to moisture); 3. soft feces (loss of normal shape of the pellets); 4. loose and amorphous (complete loss of shape, accompanied by a blot pattern); and 5. diarrhea (watery feces). Fecal form score (FFS) in rats was determined by averaging two independent observation scores for all rats in the same group (n=5); and the mean value for the vehicle group was 1.
The urine was centrifuged at 4° C. at 3220 g for 5 min, and the urinary phosphorus concentration (phosphomolybdic acid ultraviolet endpoint colorimetric method) and urinary sodium concentration (ion selective electrode method) were measured.
as §1, with “error (Means±SEM).” for “error (Means±SEM), n=5 animals/group.”, “intake; one-way” for “intake; two-way”, “p<0.05; **,” for “p<0.05; **”, “p<0.01; ***,” for “p<0.01; ***”

fecal form score ([1]; after 1 day of treatment, 0.05, 0.5 and 1.0 mg/kg, vs vehicle control): increased significantly
loose feces, severity ([1]; high-dose groups 0.5 mg/kg and 1.0 mg/kg): more severe loose feces
frequency of loose feces observed ([1]; high-dose groups 0.5 mg/kg and 1.0 mg/kg, as the administration continued): decreased
loose feces, occurrence ([1]; low dose 0.01 mg/kg): No rats had loose feces
Structure (SMILES): CN1Cc2c(Cl)cc(Cl)cc2[C@H](c2ccc3cn(CCOCCOCCNC(=O)NCCCCNC(=O)NCCOCCOCCn4cc5ccc([C@@H]6CN(C)Cc7c(Cl)cc(Cl)cc76)cc5n4)nc3c2)C1 [compound represented by formula (I)]
24-h nP ([1]; after 1 day of treatment, 1.0 mg/kg, vs vehicle): significantly reduced
24-h nP (urinary phosphorus excretion amount normalized to dietary phosphorus intake) ([1]; after 1 day of treatment, 0.01, 0.05, 0.5 and 1.0 mg/kg, vs vehicle): decreasing trend
24-h nNa (urinary sodium excretion amount normalized to dietary sodium intake) ([1]; after 1 day of treatment, 0.01, 0.05, 0.5 and 1.0 mg/kg, vs vehicle control): significantly reduced
24-h nP, dose dependence ([1]; after 1 day of treatment, 0.01-1.0 mg/kg): The higher the dose, the lower the nP
24-h nNa, course ([1]; after 10 days of treatment, 0.01 mg/kg and 0.05 mg/kg): rising trend
24-h nP ([1]; after 10 days of treatment, 0.01, 0.05, 0.5 and 1.0 mg/kg, vs vehicle): significantly reduced
24-h nP, course [1]: tended to be stable
24-h nP, course ([1]; low-dose group 0.01 mg/kg): rising trend
serum phosphorus concentration ([1]; after 4 days of treatment, 0.5 mg/kg or 1.0 mg/kg, vs vehicle control): significantly reduced
serum phosphorus concentration ([1]; after 10 days of treatment, 0.01, 0.05, 0.5 and 1.0 mg/kg, vs vehicle control): significantly reduced
serum phosphorus concentration, course ([1]; twice a day, after 10 days, groups other than the highest dose 1.0 mg/kg): tended to be stable
urinary phosphorus excretion amount (nP) ([2]; single intragastric administration, 0.03, 0.1, 0.3, 1.0 mg/kg, urine 16 h after administration, dose dependence): dose-effect relationship
water content in the feces (fecal form score) ([2]; single intragastric administration, 0.03-1.0 mg/kg, 16 h): tendency to increase with the increase in the dose
urinary phosphorus excretion amount (nP) ([2]; single intragastric administration, doses of 0.3 mg/kg and 1.0 mg/kg, urine 16 h after administration): significantly reduce
urinary phosphorus excretion amount (nP), comparison with Tenapanor ([2]; single intragastric administration, same dose 0.3 mg/kg of both): better than Tenapanor
urinary sodium excretion amount (nNa) ([2]; single intragastric administration, urine 16 h after administration): significantly reduce
